Molecular target: T1, Sentrin-specific protease 1 (Homo sapiens, UniProt Q9P0U3)
T1 sequence (Q9P0U3 whole entry): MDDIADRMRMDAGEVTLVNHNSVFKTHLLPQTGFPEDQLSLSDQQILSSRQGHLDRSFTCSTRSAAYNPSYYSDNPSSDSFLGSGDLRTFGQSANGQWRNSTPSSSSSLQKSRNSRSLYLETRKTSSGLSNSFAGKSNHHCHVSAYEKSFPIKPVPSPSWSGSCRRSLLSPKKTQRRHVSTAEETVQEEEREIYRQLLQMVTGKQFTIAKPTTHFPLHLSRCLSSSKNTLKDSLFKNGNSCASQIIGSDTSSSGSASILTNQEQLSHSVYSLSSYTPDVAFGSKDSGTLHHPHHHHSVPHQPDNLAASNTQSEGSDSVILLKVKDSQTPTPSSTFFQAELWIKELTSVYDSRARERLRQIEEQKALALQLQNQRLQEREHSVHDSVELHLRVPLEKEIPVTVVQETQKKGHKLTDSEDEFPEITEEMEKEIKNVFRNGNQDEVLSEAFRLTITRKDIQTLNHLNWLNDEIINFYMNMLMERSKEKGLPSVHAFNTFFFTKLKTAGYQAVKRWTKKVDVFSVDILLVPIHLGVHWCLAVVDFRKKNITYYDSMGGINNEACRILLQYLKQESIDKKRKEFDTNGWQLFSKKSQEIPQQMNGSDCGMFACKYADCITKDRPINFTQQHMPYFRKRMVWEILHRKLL

IC50 [µM] | Compound
7.9 | Oc1c2c(c(O)n1-c1ccccn1)C(c1ccccc1)C=CC2c1ccccc1 (stereo not drawn) [4,7-diphenyl-2-pyridin-2-yl-3a,4,7,7a-tetrahydroisoindole-1,3-dione]
8.71 | O=C(Cc1cccc2ccccc12)NC(NC(=S)Nc1ccccc1Cl)C(Cl)(Cl)Cl (stereo not drawn) [2-(1-naphthyl)-N-[2,2,2-trichloro-1-({[(2-chlorophenyl)amino]carbonothioyl}amino)ethyl]acetamide]
7.2 | O=[N+]([O-])c1ccc(C/N=N/c2ccccc2)cc1
30.5 | N#CC1C(=N)Oc2cc(Nc3ccccc3)ccc2C1c1ccncc1 (stereo not drawn) [2-amino-7-anilino-4-pyridin-4-yl-4H-1-benzopyran-3-carbonitrile]
11 | COc1ccc(-n2c(O)c3c(c2O)C(C(=O)c2ccccc2)N2CCCC32)cc1 (stereo not drawn) [MLS000762485]
7.78 | O=C(c1ccccc1)[C@@H]1c2c(c(O)n(-c3ccc(F)cc3)c2O)C2CCCN21 (stereo partly drawn) [MLS000769629]
10.6 | CC1=C(C#N)C(=O)NC(=O)C1=NNc1ccc(Br)cc1C(=O)O [MLS001213177]
7.67 | CCOc1cc(C=c2[nH]c3n(c2=O)CCCCC=3)ccc1O [MLS000774439]
9.69 | COc1ccc(C=Nn2c(O)csc2=S)cc1Br [3-[(E)-(3-bromo-4-methoxyphenyl)methylideneamino]-2-sulfanylidene-4-thiazolidinone]
2.89 | O=NC1c2cc([N+](=O)[O-])ccc2-c2cc(Cl)c(NC(=O)C(F)(F)F)cc21 (stereo not drawn) [MLS002707326]
18.2 | CCOC1=CC(=Cc2sc(=O)[nH]c2N)C=CC1=O
11.3 | CCN1C(=O)c2cccc3c(NC(=O)c4cccc(-n5c(O)ccc5O)c4)ccc1c23 [3-(2,5-dioxopyrrolidin-1-yl)-N-(1-ethyl-2-oxobenzo[cd]indol-6-yl)benzamide]
12.5 | O=C1CC(=Nc2ccc(Cl)cc2)C(=O)N1c1ccc(Cl)cc1 [1-(4-chlorophenyl)-3-[(4-chlorophenyl)amino]pyrrole-2,5-dione]
42.4 | CC1(C)CC(=O)C2Sc3ccccc3N=C2C1 (stereo not drawn) [2,2-Dimethyl-2,3-dihydro-1H,10H-phenothiazin-4-one]
3.12 | Nc1ccc2c(c1)C(N=O)c1cc([N+](=O)[O-])ccc1-2 (stereo not drawn) [N-(2-azanyl-7-nitro-fluoren-9-ylidene)hydroxylamine]
8.55 | O=C1CC(=O)c2cccc3cccc1c23 [3-hydroxy-1H-phenalen-1-one]
8.97 | O=C(O)c1ccc(N=NCc2cccc3nccnc23)cc1 [4-[(2E)-2-(5-quinoxalinylmethylidene)hydrazinyl]benzoic acid]
4.65 | CC(=O)Oc1ccc(-n2c(O)c3c(c2O)C(C(=O)c2ccc(Cl)cc2)N2CCCC32)cc1 (stereo not drawn) [Acetic acid 4-[4-(4-chloro-benzoyl)-1,3-dioxo-octahydro-pyrrolo[3,4-a]pyrrolizin-2-yl]-phenyl ester]
13.2 | CN(C)c1ccc(C=NNC(=O)C(=O)CC2=NC3(CCCC3)Cc3ccccc32)cc1 [MLS000589038]
17.1 | O=C1CCCC2=Nc3cc(Cl)ccc3SC12 (stereo not drawn) [MLS000333002]
4.36 | COc1ccc(-n2c(O)c3c(c2O)C(C(=O)c2ccc(Cl)cc2)N2CCCC32)cc1 (stereo not drawn)
15.4 | COc1nccnc1NS(=O)(=O)c1ccc(NC(=S)NC(=O)c2ccc(F)cc2)cc1 [4-[3-(4-Fluoro-benzoyl)-thioureido]-N-(3-methoxy-pyrazin-2-yl)-benzenesulfonamide]

Compound | IC50 [µM]
COc1ccc(P2(=O)Nc3ccccc3N2)cc1 [2-(4-methoxyphenyl)-1,3-dihydro-1,3,2-benzodiazaphosphole 2-oxide] | > 80
